Measurements reported in patent publication US20210290597A1, “METHOD OF TREATING A CONDITION ASSOCIATED WITH NEURODEGENERATION USING INHIBITORS OF OAT3” (Neuropore Therapies, Inc., priority 2018, published 2021).

How the values were obtained:
[1] = test system: Translocator Protein (18 kDa) (TSPO); experiment: TSPO immunofluorescence in cortex, L61 ASYN transgenic mice, 3 month study; assay type: in vivo; details: 5 and 10 mg/kg i.p. daily, 3 months
Method: Briefly, Compound 1 was injected into L61 ASYN transgenic mice and non-transgenic control mice (i.p., once daily) at doses of 5 and 10 mg/kg for 3 months (79 total mice, n=14-17 mice per treatment group). The vehicle control consisted of a solution containing 5% DMSO+20% Cremphor EL+0.9% normal saline. The baseline grip strength of mice was evaluated prior to starting treatments for the 3 month study, and then re-evaluated following 70 days of treatment with vehicle or Compound 1 (5 or 10 mg/kg, i.p. injection daily).
Neuroinflammation is associated with increased expression of the 18-kDa translocator protein (TSPO), which is a marker for inflammation and is present on the mitochondria of activated microglia, astroglia and macrophages (Crawshaw and Robertson 2017). The effects of Compound 1 on the levels of Translocator Protein (18 kDa) (TSPO) were assessed in both L61 ASYN transgenic and non-transgenic mice in the aforementioned 3 month administration study. At the end of the study, the mice were sacrificed, and immunofluoresence (IF) detection of TSPO were assessed in the harvested brain tissues.
The harvested brain tissues were fixed (drop fixed in 4% paraformaldehyde), sectioned using a vibratome, and representative sections were assessed for TSPO with standard immunofluorescence (IF) staining. […]

[2] = biological target: T1, human transporter OATP1B3 (Homo sapiens, UniProt Q9NPD5); experiment: In vitro ion transport assay 1, OATP1B3; assay type: cell-based; details: probe substrate 2 μM [3H]-CCK-8
T1 construct: expressed in transfected cells; host or cells: MDCK-II
T1 sequence (Q9NPD5 1-702): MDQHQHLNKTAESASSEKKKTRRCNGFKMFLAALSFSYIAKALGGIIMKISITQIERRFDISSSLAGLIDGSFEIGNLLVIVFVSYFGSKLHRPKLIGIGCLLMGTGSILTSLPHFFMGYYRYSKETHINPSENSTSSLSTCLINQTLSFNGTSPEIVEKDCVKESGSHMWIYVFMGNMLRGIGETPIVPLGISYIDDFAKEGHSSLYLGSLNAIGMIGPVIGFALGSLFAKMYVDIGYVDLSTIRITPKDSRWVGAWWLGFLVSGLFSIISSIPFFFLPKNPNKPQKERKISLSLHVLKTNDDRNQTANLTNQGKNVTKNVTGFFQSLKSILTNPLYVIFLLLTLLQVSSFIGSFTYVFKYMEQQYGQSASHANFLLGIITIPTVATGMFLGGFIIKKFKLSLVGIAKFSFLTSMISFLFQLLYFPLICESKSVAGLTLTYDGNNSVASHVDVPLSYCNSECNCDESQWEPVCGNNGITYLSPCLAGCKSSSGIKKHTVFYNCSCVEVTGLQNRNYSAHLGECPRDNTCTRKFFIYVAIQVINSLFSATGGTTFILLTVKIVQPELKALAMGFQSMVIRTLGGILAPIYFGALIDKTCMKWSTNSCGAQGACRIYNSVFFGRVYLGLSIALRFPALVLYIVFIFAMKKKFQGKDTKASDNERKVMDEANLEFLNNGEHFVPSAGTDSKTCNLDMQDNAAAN
Method: Compound 1 was studied in the concentration range of 0.1-100 μM for its potency against transport mediated by various transporter proteins. [table]

total alpha-synuclein = experiment: Total alpha-synuclein IHC, L61 ASYN transgenic mice, 1 month study; assay type: in vivo; details: for reduction of total alpha-synuclein level in cortex compared to vehicle control: L61 ASYN transgenic mice
Method: Multiple in vivo administration studies of Compound 1 were carried out in the Line 61 (L61) mThy1-alpha-synuclein transgenic mouse model of Parkinson's disease (PD). The mThy1-alpha-synuclein transgenic mouse model overexpresses wild-type human ASYN under the Thy-1 promoter (commonly referred to as Line 61 transgenic mice; Rockenstein et al., 2002). This transgenic mouse develops extensive accumulation of alpha-synuclein (ASYN) in areas relevant to PD (Rockenstein et al., 2002; Chesselet et al., 2012; Games et al., 2013), neurodegeneration including dopaminergic neurodegeneration, reduced dopamine (DA) and TH loss in the striatum (Masliah et al., 2000; Lam et al., 2011), and motor deficits (Fleming et al., 2004). Male transgenic and non-transgenic littermates (3-3.5 mo) were used for all in vivo studies presented here.
Alpha-synuclein (ASYN) is a neuronal protein whose dysregulation has been implicated in the pathogenesis of PD. The effects of Compound 1 on alpha-synuclein aggregation were assessed in both L61 ASYN transgenic and non-transgenic mice in a 1 month administration study. L61 ASYN transgenic mice (36 total mice, n=8-11 mice per treatment group) were injected (i.p.) daily with 1, 5, or 10 mg/kg of Compound 1 or a vehicle control (5% DMSO+20% Cremphor EL+0.9% normal saline) for 1 month. Non-transgenic mice (18 total mice, n=8-11 mice per treatment group) were used as a control and were injected daily (i.p.) with 10 mg/kg of Compound 1 or a vehicle control (5% DMSO+20% Cremphor EL+0.9% normal saline) per day for 1 month. At the end of one month, the mice were sacrificed, and immunohistochemical (IHC) detection of total alpha-synuclein deposits, insoluble alpha-synuclein deposits (PK+resistant), microtubule-associated protein 1A/1B-light chain 3 (LC3), and monomeric alpha-synuclein levels were assessed in the harvested brain tissues.
The quantification and IHC staining of total alpha-synuclein were performed using known techniques (Rockenstein et al., J Neurosci Res. 2002, 68(5):568-78; Tanji et al., Acta Neuropathol. 2010, 120, 145-154; Nuber et al., Brain. 2013 February; 136(Pt 2):412-32).

- IC50 [2]: 51.2 µM
Compound: O=S(=O)(c1ccc(-n2cn[nH]c2=S)cc1)c1ccc(Cl)c(C(F)(F)F)c1 [Compound 1, 4-(4-((4-chloro-3-(trifluoromethyl)phenyl)sulfonyl)phenyl)-2,4-dihydro-3H-1,2,4-triazole-3-thione]
- levels of TSPO in cortex vs vehicle control [1]: significantly decreased
- reduction of total alpha-synuclein level in cortex compared to vehicle control (total alpha-synuclein; 1 mg/kg daily i.p.): 13%
- reduction of total alpha-synuclein level in cortex compared to vehicle control (total alpha-synuclein; 5 mg/kg daily i.p.): 32%
- reduction of total alpha-synuclein level in cortex compared to vehicle control (total alpha-synuclein; 10 mg/kg daily i.p.): 38%
- total ASYN in the neuropil of cortex, hippocampus and striatum vs vehicle (total alpha-synuclein; 1, 5 or 10 mg/kg per day i.p., statistically significant): reduced total ASYN
